Experimental data published in patent publication EP1142883A1, “NOVEL HETEROCYCLIC COMPOUNDS AND DRUG COMPOSITIONS CONTAINING THE SAME” (Asahi Kasei Kabushiki Kaisha, priority 1998, dated 2000).

Key:
human β3 = target: T1, human β3 (Homo sapiens, UniProt P13945); assay: Human β3-agonist activities: cAMP in CHO cells transfected with human β3 gene; assay type: cell-based; details: for Emax: CHO, read-out: *Intrinsic Activity (%); for EC50 / *Intrinsic Activity (%): cAMP, 30 minutes, CHO cells expressing human β3; for EC50: read-out: ED50 (the source's name); for *Intrinsic Activity (%): relative value as compared with isoproterenol
T1 construct: the full length human β3 gene was obtained from a human genomic library; expressed in transfected cells; host or cells: CHO (Chinese hamster ovary) cells, pcDNA3 vector, geneticin selection
Description: Human β3-agonist activities were determined using CHO (Chinese hamster ovary) cells transfected with pcDNA3 (mfd. by Invitrogen) to which human β3 gene had been inserted. Human β3 fragment was first obtained from human adipose tissue cDNA (mfd. by Clonetech) by PCR using the primer of β3 (Krief, et al., J. Clin. Invest., 91, pp. 344-349 (1993)). The human β3 fragment obtained was then used as a probe and then the full length human β3 gene was obtained from a human genomic library (mfd. by Clonetech).
The above cells were cultured in a Ham F-12 medium supplemented with 10% fetal bovine serum (mfd. by Dainippon Pharmaceutical), 400 µg/mL geneticin (Gibco BRL), 100 U/mL penicillin and 100 µg/mL streptomycin. After placing these cells (5×10^5) into a 6-well plate and culturing them for 24 hours, they were allowed to stand on a serum-free Ham F-12 medium for 2 hours. The compound was first dissolved in DMSO, repeatedly diluted by ten times with Ham F-12 supplemented with 1 mM isobutylmethylxanthine and 1 mM ascorbic acid to a final concentration of 10^-5 to 10^-12 M, and then added to the cells.
After the cells were cultured for 30 minutes, the medium was removed followed by addition of 0.5 mL of 1 N NaOH. The medium was allowed to stand for 20 minutes and then 0.5 mL of 1 N acetic acid was added to the medium. The medium was stirred and centrifuged followed by quantitating cAMP with cAMP EIA kit (mfd. by Cayman). […]

[1] = Permeability through human small intestine epithelium (Caco-2 cell layer); details: human, Caco-2
Text: (§1) Human colon adenocarcinoma, Caco-2 cell, when cultured, spontaneously differenciates to form a cell layer consisting of a polar single layer having microvillus similar to small intestine epithelial cell. The presence of tight junction has been found out in the membrane formed. Therefore, the above cell layer can be used as a model system of human small intestine epithelium and is recognized as the simplest system to evaluate the permeability through a membrane of a drug orally administered to human. The specific experimental method is as follows.
(§2) Before the cells reached confluence, DMEM was removed and the flask was washed with PBS (phosphate buffered saline, pH 7.2, Ca, Mg free (Gibco BRL)) and treated with trypsin/EDTA to peel off the cells, which were then harvested.
(§3) After centrifugation (1000 rpm, 5 min), the cells were resuspended in DMEM at 4.4×10^5 cells/mL. The cells were seeded into Transwell cell culture chamber (mfd. by Costar) having a collagen-coated membrane filter (3 µm pores, 0.33 cm^2 growth area) at 0.15 mL/well (2×10^5 cells/cm^2, 24 well). After seeding, DMEM was renewed every other day. After culturing for 18 to 25 days, a membrane formed having a membrane resistance of at least 200 Ω · cm^2 was applied to the drug permeation experiment.
(§4) DMEMs in the cup side and base side of Transwell were removed and then replaced with a buffer for the permeation experiment (HBSS (Hanks Balanced Salt Solution, Gibco BRL), 10 mM Mes, pH 6.5 (mfd. by DOJINDO) or 10 mM Hepes, pH 7.4 (mfd. by DOJINDO) containing 25 mM glucose and 0.05% Tween 80). The cup side buffer (0.15 mL) was maintained at pH 6.5 and the base side buffer (0.8 mL) was maintained at pH 7.4. After pre-incubation at 37°C for 10 minutes, the cup side buffer was replaced with the buffer (pH 6.5) containing a drug (20-40 µM). With additionally incubating at 37°C, 80 µL aliquot of the base side buffer was sampled with the passage of time to quantitate the amount of the drug permeated into the base side buffer.
(§5) The amount of the drug contained in the base side buffer sampled with the passage of time was divided by the time to calculate the amount of the drug permeated per unit time (sec). It was then divided by the concentration of the drug added and the surface area of the membrane to calculate the permeability coefficient (Papp). That is, the permeability coefficient (Papp) is obtained by the following calculating formula.
(§6) In this connection, the quantitation of the drug was carried out with LC/MS or HPLC (detecting with fluorescence). The conditions of LC/MS and HPLC are as follows.

Caco-2 cell = assay: as above; details: Caco-2 layer, cup side pH 6.5, base side pH 7.4, drug 20-40 µM, 37°C
Text: as §1, §2, §3, §4, §5, §6

T1 sequence (P13945 whole entry): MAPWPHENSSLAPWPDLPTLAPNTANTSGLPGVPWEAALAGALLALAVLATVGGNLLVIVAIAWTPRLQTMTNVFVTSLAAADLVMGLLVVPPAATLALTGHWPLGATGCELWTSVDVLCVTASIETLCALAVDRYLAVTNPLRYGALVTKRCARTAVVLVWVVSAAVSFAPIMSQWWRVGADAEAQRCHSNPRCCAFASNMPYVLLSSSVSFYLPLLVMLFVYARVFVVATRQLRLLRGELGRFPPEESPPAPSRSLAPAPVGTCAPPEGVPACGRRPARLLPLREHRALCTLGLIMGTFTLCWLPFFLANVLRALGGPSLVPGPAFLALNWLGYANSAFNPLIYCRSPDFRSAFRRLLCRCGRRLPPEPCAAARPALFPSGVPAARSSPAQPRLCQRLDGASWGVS

Row | Compound | Emax (human β3) | EC50 (human β3) | Papp A→B [1] | *Intrinsic Activity (%) (human β3) | Permeability Coefficient Papp × 10^-6 (cm/s) (Caco-2 cell)
1 | CS(=O)(=O)N1CCOc2ccc([C@@H](O)CNCCOc3ccc4c(c3)[nH]c3ccccc34)cc21 [Example 2, (R)-6-[2-[2-(9H-carbazol-2-yloxy)ethylamino]-1-hydroxyethyl]-4-(methylsulfonyl)-2,3-dihydro-1,4-benzoxazine] | 69% | 12 nM | 0.93 ×10⁻⁶ cm/s |  | 
2 | CS(=O)(=O)N1COc2ccc([C@@H](O)CNCCOc3ccc4c(c3)[nH]c3ccccc34)cc21 [Example 3, (R)-5-[2-[2-(9H-carbazol-2-yloxy)ethylamino]-1-hydroxyethyl]-3-(methylsulfonyl)-2,3-dihydrobenzoxazole] | 70% | 65 nM | 1.03 ×10⁻⁶ cm/s |  | 
3 | CS(=O)(=O)N1CCCOc2ccc([C@@H](O)CNCCOc3ccc4c(c3)[nH]c3ccccc34)cc21 [Example 4, (R)-7-[2-[2-(9H-carbazol-2-yloxy)ethylamino]-1-hydroxyethyl]-5-(methylsulfonyl)-2H,3H,4H-benzo[b]1,4-oxazepine] | 107% | 620 nM | 1.93 ×10⁻⁶ cm/s |  | 
4 | CN(C)S(=O)(=O)n1c(=O)oc2ccc([C@@H](O)CNCCOc3ccc4c(c3)[nH]c3ccccc34)cc21 [Example 7, (R)-3-[(dimethylamino)sulfonyl]-5-[2-[2-(9H-carbazol-2-yloxy)ethylamino]-1-hydroxyethyl]-3-hydrobenzoxazol-2-one] |  | 100 nM |  | 76% | 0.78 × 10^-6 cm/s
5 | CN(C)S(=O)(=O)n1c(=S)oc2ccc([C@@H](O)CNCCOc3ccc4c(c3)[nH]c3ccccc34)cc21 [Example 8, (R)-3-[(dimethylamino)sulfonyl]-5-[2-[2-(9H-carbazol-2-yloxy)ethylamino]-1-hydroxyethyl]-3-hydrobenzoxazol-2-thione] | 99% | 610 nM |  |  | 
6 | O=c1[nH]c2cc([C@@H](O)CNCCOc3ccc4c(c3)[nH]c3ccccc34)ccc2o1 [Example 10, (R)-5-[2-[2-(9H-carbazol-2-yloxy)ethylamino]-1-hydroxyethyl]-3-hydrobenzoxazol-2-one] |  | 170 nM |  | 99% | 0.54 × 10^-6 cm/s
7 | CC(C)NCC(O)c1ccc(O)c(O)c1 (stereo not drawn) [Isoproterenol, reference compound] |  |  |  | 100% | 
